Here are results for two compounds from patent US20090221513A1, “Treatment of Neurodegenerative Disorders” (The Open University, priority 2005, published 2009).

Entries after “also recorded” stand apart in the source; their conditions may differ. Where a SMILES comes first, the peptide text is derived from it. [ ]: non-standard residue; d: D form. ξ: configuration not given here. ξR = N=C(N)NCCCC(N)C(=O)O; ξE = NC(CCC(=O)O)C(=O)O

Assay [1] concerns chicks with MK801-induced amnesia. Description: passive avoidance task, MK801-induced amnesia in chicks. The class given is in vivo, chick. The conditions noted are these: 8 μg/hemisphere ic pre-training; MK801 0.020 mg/100 gr ip pre-training; tested 3 hr later. How it is done:
FIG. 8 Effect of Ac-rER on MK801-induced amnesia. Chicks were injected ic with 8 μg/hemisphere of Ac-rER 60 min pre-training followed by ip injection of MK80 1 (0.020 mg/100 gr) pre-training. Controls were injected with saline. Chicks were tested 3 hr later. […] Each chick was trained and tested only once and differences between groups were tested for statistical significance by G-test (Sokal, and Rohlf, 1995).
Commercially obtained Ross Chunky eggs were incubated and hatched in brooders and held until 16±6 hours old. Chicks were placed in pairs in small aluminium pens. Following an equilibration period of an hour, the chicks were pretrained and trained essentially as described by Lossner and Rose (J. Neurochem. 41, 1357-1363 (1983), the contents of which are incorporated herein by reference). Pretraining involved three 10 s presentations of a small (2 mm diameter) white bead, at approximately 5 minute intervals. […] Two training techniques were used: “strong” and “weak” training. In both, 5 to 10 minutes after the last pre-training trial, chicks were trained by a 10 s presentation of a 4 mm diameter chrome bead, which had been dipped in the bitter-tasting methylanthranilate. […] Recall is calculated as a percent avoidance score (percentage of chicks which avoid the chrome bead) and as a discrimination score (percentage of chicks which avoid the chrome but peck at the white bead). […]

For assay [2], the system named is chicks trained on a weak training task. Description: one trial passive avoidance task, weak training (10% methylanthranilate), memory enhancement. The class given is in vivo, chick. The conditions noted are these: for bio-activity as a cognitive enhancer: chick, D/L forms compared with RER; for memory retention (percent showing avoidance and discrimination), FIG. 1: weak aversive learning task, ic injection 60 min pre-training, saline control. As for the experimental part:
FIG. 1 The effect of different D/L forms of tripeptide as memory enhancers on weak memory. Chicks were injected ic with different D/L forms of tripeptide 60 min pre-training and tested 24 after. The control group received saline. […] Each chick was trained and tested only once and differences between groups were tested for statistical significance by G-test (Sokal, and Rohlf, 1995). Note that the G-test reflects group differences, and so there are no error bars on the figures.
FIG. 3 The effect of Ac-rER as memory enhancer in chicks trained on a weak training task (WT). Chicks were injected 2×ip injections, 1 mg/100 gr bw, 30 min and 6 hr pre-training and tested 24 hr later. The control groups received Ac-REr. […] Each chick was trained and tested only once and differences between groups were tested for statistical significance by G-test (Sokal, and Rohlf, 1995).
FIG. 5 Dose-dependence of the effect of Ac-rER in weak training. Chicks were injected ip with different doses of the Ac-rER 60 min pre-training and tested 24 after. The control group received saline. […] Each chick was trained and tested only once and differences between groups were tested for statistical significance by G-test (Sokal, and Rohlf, 1995).
FIG. 6 Stability of Ac-rER. Chicks were injected ip with 2 mg/100 g bw of Ac-rER 1, 2, 4, 6 and 12 hr before training and tested 24 hr later. The control group received saline. […] Each chick was trained and tested only once and differences between groups were tested for statistical significance by G-test (Sokal, and Rohlf, 1995). […]
Commercially obtained Ross Chunky eggs were incubated and hatched in brooders and held until 16±6 hours old. Chicks were placed in pairs in small aluminium pens. Following an equilibration period of an hour, the chicks were pretrained and trained essentially as described by Lossner and Rose (J. Neurochem. 41, 1357-1363 (1983), the contents of which are incorporated herein by reference). Pretraining involved three 10 s presentations of a small (2 mm diameter) white bead, at approximately 5 minute intervals. […] Two training techniques were used: “strong” and “weak” training. In both, 5 to 10 minutes after the last pre-training trial, chicks were trained by a 10 s presentation of a 4 mm diameter chrome bead, which had been dipped in the bitter-tasting methylanthranilate. Control chicks pecked at a water-coated or dry bead. In the “strong” version of the task, 100% methylanthranilate was used. In the “weak” version, 10% methylanthranilate was used. Chicks spontaneously pecked at the training or control beads within 20 s. Chicks that pecked at the bitter bead evinced a disgust reaction and would not normally peck at a similar, but dry bead for some hours subsequently. At various times following training chicks were tested, by offering them a dry 4 mm diameter chrome bead, followed 10 minutes later by a small (2 mm diameter) white bead, each for 20 to 30 s. Animals were tested by an experimenter blind as to which treatment each chick had received. Chicks are considered to remember the task if they avoid the chrome bead at test but peck at the white bead (discriminate), and to have forgotten it if they peck at both beads. Recall is calculated as a percent avoidance score (percentage of chicks which avoid the chrome bead) and as a discrimination score (percentage of chicks which avoid the chrome but peck at the white bead). […] Each chick was trained and tested only once and differences between groups tested for statistical significance by g-test described by Sokal and Rohlf (biometry: the Principles and Practice of Statistics in Biological Research (2nd edition), W H Freeman, New York (1981)), the contents of which are incorporated herein by reference. […]

The subject of assay [3] is chicks with Anisomycin-induced amnesia. Nature of the assay: passive avoidance task, Anisomycin-induced amnesia in chicks. The class given is in vivo, chick. Conditions: 8 μg/hemisphere ic pre-training; Anisomycin 125 nmol/hemisphere ic immediately post-training; tested 3 hr post training. As for the experimental part:
FIG. 7 Effect of Ac-rER on Anisomycin-induced amnesia in chicks. Chicks were injected ic with 8 μg/hemisphere of Ac-rER 60 min pre-training followed by ic injection of Anisomycin (125 nmol/hemisphere). immediately post-training. Controls were injected with saline. Chicks were tested 3 hr post training. […] Each chick was trained and tested only once and differences between groups were tested for statistical significance by G-test (Sokal, and Rohlf, 1995).
Commercially obtained Ross Chunky eggs were incubated and hatched in brooders and held until 16±6 hours old. Chicks were placed in pairs in small aluminium pens. Following an equilibration period of an hour, the chicks were pretrained and trained essentially as described by Lossner and Rose (J. Neurochem. 41, 1357-1363 (1983), the contents of which are incorporated herein by reference). Pretraining involved three 10 s presentations of a small (2 mm diameter) white bead, at approximately 5 minute intervals. […] Two training techniques were used: “strong” and “weak” training. […] Recall is calculated as a percent avoidance score (percentage of chicks which avoid the chrome bead) and as a discrimination score (percentage of chicks which avoid the chrome but peck at the white bead). […]

In assay [4] the test system is chicks with Aβ1-42-induced amnesia. Description: passive avoidance task in chicks with Aβ-induced amnesia. Conditions: for protection against amyloid-beta induced memory loss: chick. The class given is in vivo, chick. As for the experimental part: FIG. 2 The effect of Ac-rER on memory in chicks with Aβ-induced amnesia. Chicks were injected 2×ip, 1 mg/100 gr bw, with Ac-rER, 6 hr and 12 hr pre-training. Aβ1-42 (2 μg/hemisphere) was injected ic 60 min pre-training. Chicks were tested 24 hr later. […] Each chick was trained and tested only once and differences between groups were tested for statistical significance by G-test (Sokal, and Rohlf, 1995).
Commercially obtained Ross Chunky eggs were incubated and hatched in brooders and held until 16±6 hours old. Chicks were placed in pairs in small aluminium pens. Following an equilibration period of an hour, the chicks were pretrained and trained essentially as described by Lossner and Rose (J. Neurochem. 41, 1357-1363 (1983), the contents of which are incorporated herein by reference). Pretraining involved three 10 s presentations of a small (2 mm diameter) white bead, at approximately 5 minute intervals. […] Two training techniques were used: “strong” and “weak” training. In both, 5 to 10 minutes after the last pre-training trial, chicks were trained by a 10 s presentation of a 4 mm diameter chrome bead, which had been dipped in the bitter-tasting methylanthranilate. Control chicks pecked at a water-coated or dry bead. In the “strong” version of the task, 100% methylanthranilate was used. In the “weak” version, 10% methylanthranilate was used. Chicks spontaneously pecked at the training or control beads within 20 s. Chicks that pecked at the bitter bead evinced a disgust reaction and would not normally peck at a similar, but dry bead for some hours subsequently. At various times following training chicks were tested, by offering them a dry 4 mm diameter chrome bead, followed 10 minutes later by a small (2 mm diameter) white bead, each for 20 to 30 s. Animals were tested by an experimenter blind as to which treatment each chick had received. […] Recall is calculated as a percent avoidance score (percentage of chicks which avoid the chrome bead) and as a discrimination score (percentage of chicks which avoid the chrome but peck at the white bead). […]

Assay [5] concerns chicks trained on a weak training task. The conditions noted are these: as described in WO02/083729; cited from earlier work.

In the case of `CC(=O)NC(CCCNC(=N)N)C(=O)NC(CCC(=O)O)C(=O)N[C@@H](CCCNC(=N)N)C(N)=O` (stereo partly drawn) [Ac-rER] (Ac-[ξR]-[ξE]-Arg-NH2), the “effect on MK801-induced amnesia, FIG. 8” value in assay [1] is on record as “prevents either of these drugs from inducing amnesia”. Moreover, the “performance on the weak training task, FIG. 3” value in assay [2] (2×ip injections, 1 mg/100 gr bw, 30 min and 6 hr pre-training, tested 24 hr later, control Ac-REr) was “significantly enhanced; also recorded: effective when injected peripherally”. Also, the “bio-activity as a cognitive enhancer” value is reported as “active as a cognitive enhancer” in assay [2] and “effective as a cognitive enhancer” in assay [2] (listed as Ac-RER). For the same compound, the “dose sufficient to enhance memory, FIG. 5” value in assay [2] (ip 60 min pre-training, tested 24 after) came to 1 mg per 100 g body weight. The “time prior to training at which injection still acts as cognitive enhancer and neuroprotective agent” value in assay [2] (ip, FIGS. 2 and 3) is on record as “up to 12 hr”. The “persistence of effect: time before training at which peptide is effective, FIG. 6” value in assay [2] (single ip injection of 1-2 mg/100 g bw, tested 24 hr later) was at most 12 h. Also, the “time of administration before training at which peptide is most effective, FIG. 6” value in assay [2] (single ip injection, weak training) worked out at 4 h. Moreover, the “memory retention (percent showing avoidance and discrimination), FIG. 1” value is recorded as “enhances memory retention to the levels observed in the chick treated with the Ac-L/L/L/ form” in assay [2] (tested 24 after) and “significant but lesser effects” in assay [2] (tested 24 after, listed as Ac-ReR). Besides, the “effect on Anisomycin-induced amnesia, FIG. 7” value in assay [3] is “prevents either of these drugs from inducing amnesia”. The “memory retention in Aβ-induced amnesia, FIG. 2” value in assay [4] (2×ip, 1 mg/100 gr bw, 6 hr and 12 hr pre-training, Aβ1-42 2 μg/hemisphere ic 60 min pre-training, tested 24 hr later) was “restores cognitive function and prevents memory loss”. The figures for the “protection against amyloid-beta induced memory loss” value in assay [4] and in assay [4] (listed as Ac-RER) were “protecting against amyloid-beta induced memory loss” and “protecting against amyloid-beta”, respectively.
For Arg-Glu-Arg [RER], in assay [5], the “time prior to training at which injection is still effective (maximum), unprotected L-form” value is at most 3 h.
